In brackets after ≈: the same amount, converted by molar mass. Where two headings read alike, the source gives them in different places.
What was measured:
[1] = system: S. aureus; test: MIC (microbroth dilution); type: cell-based, Staphylococcus aureus
Method in brief: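 Overnight stationary-phase cultures back-diluted and tested by broth microdilution with 2-fold compound series. MIC is lowest concentration with no visible growth, with OD600 also read. Separate runs included polymyxin B nonapeptide at 30 μg/mL final as outer-membrane permeabilizer.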

[2] = system: Pseudomonas aeruginosa; test: MIC (microbroth dilution); type: cell-based
Method in brief: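 Broth microdilution MICs were run in tryptic soy broth, or for Streptococcus spp. in cation-adjusted Mueller Hinton broth with 2.5% lysed horse blood, using overnight stationary-phase cultures back-diluted. MIC was the lowest concentration with no visible growth, with OD600 also read. Some MICs included PMBN at 30 μg/mL final.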

[3] = target: T1, GyrA S84L mutant DNA gyrase (Staphylococcus aureus, UniProt P0A0K8+P20831, S84L); test: DNA gyrase supercoiling inhibition assay; type: biochemical, S. aureus; conditions: S84L mutant enzyme; read-out: IC50 (converted)
T1 construct: purchased Inspiralis Ltd. (Norwich, UK)
Description: (§1) Gyrase inhibition was determined through biochemical assay kits from Inspiralis Ltd. (Norwich, UK), according to manufacturer’s instructions, and as described previously. Briefly, 1U of enzyme was incubated with 0.5 μg of relaxed […] DNA in the presence of compound in 1% DMSO for 30 min at 37 °C. A control reaction contained no compound but still contained 1% DMSO. The reactions were stopped through Stop Buffer addition and the DNA separated through addition of chloroform/iso-amyl alcohol (24;1). Samples were run on a 1% agarose gel at 75 V for 2 h, which was then stained with 1 μg/mL ethidium bromide and visualized using a NuGenius gel imager (Syngene). The intensity of the supercoiled DNA band was quantified using Syngene software, and the inhibition of the supercoiling of the DNA by the compounds was calculated.

[4] = target: T2, WT DNA gyrase (Staphylococcus aureus, UniProt P0A0K8+P20831); test: DNA gyrase supercoiling inhibition assay; type: biochemical, S. aureus; conditions: WT enzyme; read-out: IC50 (converted)
T2 construct: purchased Inspiralis Ltd. (Norwich, UK)
Description: as §1

With `C[C@H]1COc2c(N3CCN(C)CC3)c(F)cc3c(=O)c(C(=O)O)cn1c23` [Levofloxacin, (S)-9-Fluoro-3-methyl-10-(4-methylpiperazin-1-yl)-7-oxo-2,3-dihydro-7H-[1,4]oxazino[2,3,4-ij]quinoline-6-carboxylic acid, reference compound] the MIC ([1]; ATCC 9144) was 0.25 µg/mL (≈ 0.692 µM), the MIC ([1]; SA-1199) was 0.25 µg/mL (≈ 0.692 µM) and the MIC ([1]; SA-1199B (NorA-overexpressing)) was 2 µg/mL (≈ 5.53 µM). The MIC ([1]; Staphylococcus aureus, 1199, + 4% albumin, read-out: MIC) was 0.25 µg/mL, the MIC ([1]; Staphylococcus aureus, 1199b, + 4% albumin, read-out: MIC) was 2 µg/mL and the MIC ([1]; Staphylococcus aureus, ATCC9144, ATCC 9144, + 4% albumin, read-out: MIC) was 0.25 µg/mL. The MIC ([1]; Staphylococcus aureus, ATCC9144, ATCC 9144, read-out: MIC) was 0.125 µg/mL (≈ 0.346 µM), the MIC ([1]; Staphylococcus aureus, NCTC13277, NCTC 13277, + 4% albumin, read-out: MIC) was 16 µg/mL and the MIC ([1]; Staphylococcus aureus, NCTC13277, NCTC 13277, read-out: MIC) was 16 µg/mL (≈ 44.3 µM). The MIC ([1]; Staphylococcus aureus, NCTC13616, NCTC 13616, + 4% albumin, read-out: MIC) was 16 µg/mL, the MIC ([1]; Staphylococcus aureus, NCTC13616, NCTC 13616, read-out: MIC) was 16 µg/mL (≈ 44.3 µM) and the MIC ([1]; Staphylococcus aureus, SA-1199, read-out: MIC) was 0.125 µg/mL (≈ 0.346 µM). For the same compound, the MIC ([1]; Staphylococcus aureus, SA-1199B (NorA-overexpressing)) was 1 µg/mL (≈ 2.77 µM), the MIC ([2]; CAS4, + PMBN) was no more than 0.125 µg/mL and the MIC ([2]; CFL 004 CRCN, + PMBN) was 16 µg/mL. For the same compound, the MIC ([2]; GH12, + PMBN) was 4 µg/mL, the MIC ([2]; NCTC 10662, + PMBN) was no more than 0.125 µg/mL and the MIC ([2]; NCTC 12903, + PMBN) was no more than 0.125 µg/mL. For the same compound, the MIC ([2]; NCTC 13359, + PMBN) was 0.25 µg/mL, the MIC ([2]; PAO1, + PMBN) was 0.125 µg/mL and the MIC ([2]; PAO1 ΔmexB, + PMBN) was no more than 0.03 µg/mL. It also gave an MIC ([2]; Pseudomonas aeruginosa, CAS4) of 2 µg/mL (≈ 5.53 µM), an MIC ([2]; Pseudomonas aeruginosa, GH12) of 64 µg/mL (≈ 177 µM) and an MIC ([2]; Pseudomonas aeruginosa, GH100) of 0.25 µg/mL (≈ 0.692 µM). It also gave an MIC ([2]; Pseudomonas aeruginosa, NCTC10662, NCTC 10662) of 2 µg/mL (≈ 5.53 µM), an MIC ([2]; Pseudomonas aeruginosa, NCTC12903, NCTC 12903) of 4 µg/mL (≈ 11.1 µM) and an MIC ([2]; Pseudomonas aeruginosa, NCTC13359, NCTC 13359) of 4 µg/mL (≈ 11.1 µM). For the same compound, the MIC ([2]; Pseudomonas aeruginosa, PAO1) was 0.5 µg/mL (≈ 1.38 µM), the MIC ([2]; Pseudomonas aeruginosa, PAO1, PAO1) was 2 µg/mL (≈ 5.53 µM) and the MIC ([2]; Pseudomonas aeruginosa, CFL 004 CRCN, read-out: MIC) was 128 µg/mL (≈ 354 µM). The MIC50 ([2]; Pseudomonas aeruginosa, in the presence of PMBN, n = 7 strains) was 0.125 µg/mL, the IC50 [3] was 545 µM and the IC50 [4] was 24.1 µM.
